This assay deals with T1, KRAS G12C 1-169, his-tagged protein, GDP-loaded (Homo sapiens, UniProt P01116, G12C).
T1 construct: KRAS G12C 1-169, his-tagged protein, GDP-loaded
Kind of assay: Biochemical assay: covalent modification of KRAS G12C measured by mass spectrometry (RapidFire/TOF or Q-Exactive). The following applies: covalent binding to (modification of) KRAS G12C after a ten minute incubation period. The class given is binding. The method, boiled down:
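GDP-loaded KRAS G12C 1-169 (his-tagged) at 2 μM or 0.5 μM in 20 mM Hepes, 150 mM NaCl, 1 mM MgCl2, incubated with compound at 100, 30 or 10 μM at room temperature for 10 min, 30 min, 2 h or 24 h, then quenched with formic acid. Intact-protein LC-MS, deconvolved; percent modification from modified versus unmodified protein.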
As to `C=CC(=O)N1C[C@H](C)N(c2nc(OC[C@H]3CCCN3C)nc3c(F)c(-c4c(C)ccc5[nH]nc(C)c45)c(Cl)cc23)C[C@H]1C` [Compound 179, 1-((2R,5S)-4-(6-chloro-7-(3,5-dimethyl-1H-indazol-4-yl)-8-fluoro-2-(((R)-1-methylpyrrolidin-2-yl)methoxy)quinazolin-4-yl)-2,5-dimethyllpiperazin-1-yl)prop-2-en-1-one], the Binding % entry is reported as “+++ (+++ indicates binding activity greater than 80%)”.

Turning to `C=CC(=O)N1C[C@H](C)N(c2nc(N3CC(N(C)C)C3)nc3c(F)c(-c4c(C)ccc5c(N)n[nH]c45)c(Cl)cc23)C[C@H]1C` [Compound 22, 1-((2R,5S)-4-(7-(3-amino-6-methyl-1H-indazol-7-yl)-6-chloro-2-(3-(dimethylamino)azetidin-1-yl)-8-fluoroquinazolin-4-yl)-2,5-dimethylpiperazin-1-yl)prop-2-en-1-one], the Binding % result was “+ (+ indicates binding activity greater than 0% and up to 50%)”.

For the compound `C=CC(=O)N1C[C@H](C)N(c2nc(NC(C)=O)nc3c(F)c(-c4c(C)ccc5cnn(C)c45)c(Cl)cc23)C[C@H]1C` [Compound 256, N-(4-((2S,5R)-4-acryloyl-2,5-dimethylpiperazin-1-yl)-6-chloro-7-(1,6-dimethyl-1H-indazol-7-yl)-8-fluoroquinazolin-2-yl)acetamide], the Binding % entry is listed as “++ (++ indicates binding activity from 50 to 80%)”.

For `C=CC(=O)N1C[C@H](C)N(c2nc(N3CC(N(C)C)C3)nc3c(F)c(-c4c(C)ccc5cnn(C)c45)c(Cl)cc23)C[C@@H]1C` (atropisomer, axis not shown) [Compound 248, 1-((2S,5S)-4-((S)-6-chloro-7-(1,6-dimethyl-1H-indazol-7-yl)-2-(3-(dimethylamino)azetidin-1-yl)-8-fluoroquinazolin-4-yl)-2,5-dimethylpiperazin-1-yl)prop-2-en-1-one], the Binding % entry was “+ (+ indicates binding activity greater than 0% and up to 50%)”.

For `C=CC(=O)N1C[C@H](C)N(c2nc(N3CC(N(C)C)C3)nc3c(F)c(-c4cccc5[nH]ncc45)c(Cl)cc23)C[C@H]1C` [Compound 1, 1-((2R,5S)-4-(6-chloro-2-(3-(dimethylamino)azetidin-1-yl)-8-fluoro-7-(1H-indazol-4-yl)quinazolin-4-yl)-2,5-dimethylpiperazin-1-yl)prop-2-en-1-one], the Binding % entry is listed as “++ (++ indicates binding activity from 50 to 80%)”.

Turning to `[2H]C([2H])([2H])N(C1CN(c2nc(N3C[C@@H](C)N(C(=O)C=C)C[C@@H]3C)c3cc(Cl)c(-c4c(C)ccc5cnn(C6CC6)c45)c(F)c3n2)C1)C([2H])([2H])[2H]` [Compound 214, 1-((2R,5S)-4-((R)-6-chloro-7-(1-cyclopropyl-6-methyl-1H-indazol-7-yl)-2-(3-(di-perdeuteromethylamino)azetidin-1-yl)-8-fluoroquinazolin-4-yl)-2,5-dimethylpiperazin-1-yl)prop-2-en-1-one], the Binding % entry is “+++ (+++ indicates binding activity greater than 80%)”.

Turning to `C=CC(=O)N1C[C@@H](C)N(c2nc(N3CC(N(C)C)C3)nc3c(F)c(-c4c(C)ccc5[nH]nc(C6CC6)c45)c(Cl)cc23)C[C@@H]1C` (atropisomer, axis not shown) [Compound 252, 1-((2S,5R)-4-((S)-6-chloro-7-(3-cyclopropyl-5-methyl-1H-indazol-4-yl)-2-(3-(dimethylamino)azetidin-1-yl)-8-fluoroquinazolin-4-yl)-2,5-dimethylpiperazin-1-yl)prop-2-en-1-one], the Binding % entry was “+ (+ indicates binding activity greater than 0% and up to 50%)”.

`C=CC(=O)N1C[C@H](C)N(c2nc(N3CC(N(C)C)C3)nc3c(F)c(-c4c(C)ccc5[nH]nc(Br)c45)c(Cl)cc23)C[C@H]1C` [Compound 40, 1-((2R,5S)-4-(7-(3-bromo-5-methyl-1H-indazol-4-yl)-6-chloro-2-(3-(dimethylamino)azetidin-1-yl)-8-fluoroquinazolin-4-yl)-2,5-dimethylpiperazin-1-yl)prop-2-en-1-one]: the Binding % result is “+++ (+++ indicates binding activity greater than 80%)”.

Consider “1-((2R,5S)-4-(6- chloro-7-(1,6- dimethyl-1H- benzo[d][1,2,3]triazol- 7-yl)-2-(3- (dimethylamino)azetidin- 1-yl)-8- flurooquinazolin-4- yl)-2,5- dimethylpiperazin-1- yl)prop-2-en-1-one [Compound 137]”, for which the Binding % result is “+ (+ indicates binding activity greater than 0% and up to 50%)”.

With `C=CC(=O)N1C[C@H](C)N(c2nc(N3CC(N(C)C)C3)nc3c(F)c(-c4c(C)ccc5c4NC(=O)C5)c(Cl)cc23)C[C@H]1C` [Compound 263, 7-(4-((2S,5R)-4-acryloyl-2,5-dimethylpiperazin-1-yl)-6-chloro-2-(3-(dimethylamino)azetidin-1-yl)-8-fluoroquinazolin-7-yl)-6-methylindolin-2-one], the Binding % result was “+ (+ indicates binding activity greater than 0% and up to 50%)”.

Turning to `C=CC(=O)N1CCN(c2nc(N3CC(N(C)C)C3)nc3c(F)c(-c4c(C)ccc5[nH]nc(N)c45)c(Cl)cc23)C[C@H]1C` [Compound 165, 1-((2R)-4-(7-(3-amino-5-methyl-1H-indazol-4-yl)-6-chloro-2-(3-(dimethylamino)azetidin-1-yl)-8-fluoroquinazolin-4-yl)-2-methylpiperazin-1-yl)prop-2-en-1-one], the Binding % result is given as “+++ (+++ indicates binding activity greater than 80%)”.

Regarding `C=CC(=O)N1C[C@H](C)N(c2nc(OCCN3CCCC3)nc3c(F)c(-c4c(C)ccc5[nH]nc(N)c45)c(Cl)cc23)C[C@H]1C` (atropisomer, axis not shown) [Compound 53, 1-((2R,5S)-4-((S)-7-(3-amino-5-methyl-1H-indazol-4-yl)-6-chloro-8-fluoro-2-(2-(pyrrolidin-1-yl)ethoxy)quinazolin-4-yl)-2,5-dimethylpiperazin-1-yl)prop-2-en-1-one], the Binding % result was “+ (+ indicates binding activity greater than 0% and up to 50%)”.

Take `[2H]C([2H])([2H])N(C1CN(c2nc(N3C[C@@H](C)N(C(=O)C=C)C[C@@H]3C)c3cc(Cl)c(-c4c(C)ccc5[nH]nc(C)c45)c(F)c3n2)C1)C([2H])([2H])[2H]` (atropisomer, axis not shown) [Compound 221, 1-((2R,5S)-4-((R)-6-chloro-7-(3,5-dimethyl-1H-indazol-4-yl)-2-(3-(di-perdeuteromethylamino)azetidin-1-yl)-8-fluoroquinazolin-4-yl)-2,5-dimethylpiperazin-1-yl)prop-2-en-1-one]: the Binding % entry is listed as “+++ (+++ indicates binding activity greater than 80%)”.

Regarding `C=CC(=O)N1C[C@H](C)N(c2nc(OCCCN(C)C)nc3c(F)c(-c4c(C)ccc5cnn(C)c45)c(Cl)cc23)C[C@H]1C` (atropisomer, axis not shown) [Compound 153, 1-((2R,5S)-4-((S)-6-chloro-7-(1,6-dimethyl-1H-indazol-7-yl)-2-(3-(dimethylamino)pro-poxy)-8-fluoroquinazolin-4-yl)-2,5-dimethylpiperazin-1-yl)prop-2-en-1-one], the Binding % entry was “+ (+ indicates binding activity greater than 0% and up to 50%)”.

On to `C=CC(=O)N1C[C@H](C)N(c2nc(NCCC(=O)N3CCCC3)nc3c(F)c(-c4c(C)ccc5onc(N)c45)c(Cl)cc23)C[C@H]1C` [Compound 93, 1-((2R,5S)-4-(7-(3-amino-5-methylbenzo[d]isoxazol-4-yl)-6-chloro-8-fluoro-2-(3-oxo-3-(pyrrolidin-1-yl)propylamino)quinazo-lin-4-yl)-2,5-dimethylpiperazin-1-yl)prop-2-en-1-one], for which the Binding % result was “++ (++ indicates binding activity from 50 to 80%)”.

As for `C=CC(=O)N1C[C@H](C)N(c2nc(OCC(C)(C)N(C)C)nc3c(F)c(-c4c(C)ccc5cnn(C)c45)c(Cl)cc23)C[C@H]1C` [Compound 205, 1-((2R,5S)-4-(6-chloro-7-(1,6-dimethyl-1H-indazol-7-yl)-2-(2-(dimethylamino)-2-methylpropoxy)-8-fluoroquinazolin-4-yl)-2,5-dimethylpiperazin-1-yl)prop-2-en-1-one], the Binding % entry was “+++ (+++ indicates binding activity greater than 80%)”.

Regarding `C=CC(=O)N1C[C@H](C)N(c2nc(N3CC(N(C)C)C3)nc3c(F)c(-c4c(C)ccc5[nH]nc(NC6CCC6)c45)c(Cl)cc23)C[C@H]1C` [Compound 36, 1-((2R,5S)-4-(6-chloro-7-(3-(cyclobutylamino)-5-methyl-1H-indazol-4-yl)-2-(3-(dimethylamino)azetidin-1-yl)-8-fluoroquinazolin-4-yl)-2,5-dimethylpiperazin-1-yl)prop-2-en-1-one], the Binding % result was “+ (+ indicates binding activity greater than 0% and up to 50%)”.

For `C=CC(=O)N1C[C@H](C)N(c2nc(OCCCN(C)C)nc3c(F)c(-c4c(C)ccc5cnn(C)c45)c(Cl)cc23)C[C@H]1C` (atropisomer, axis not shown) [Compound 154, 1-((2R,5S)-4-((R)-6-chloro-7-(1,6-dimethyl-1H-indazol-7-yl)-2-(3-(dimethylamino)pro-poxy)-8-fluoroquinazolin-4-yl)-2,5-dimethylpiperazin-1-yl)prop-2-en-1-one], the Binding % result is listed as “+++ (+++ indicates binding activity greater than 80%)”.

In the case of `C=CC(=O)N1C[C@H](C)N(c2nc(N3CC(NC)C3)nc3c(F)c(-c4c(C)ccc5cnn(C6CC6)c45)c(Cl)cc23)C[C@H]1C` (atropisomer, axis not shown) [Compound 207, 1-((2R,5S)-4-((S)-6-chloro-7-(1-cyclopropyl-6-methyl-1H-indazol-7-yl)-8-fluoro-2-(3-(methylamino)azetidin-1-yl)quinazolin-4-yl)-2,5-dimethylpiperazin-1-yl)prop-2-en-1-one], the Binding % result is “+ (+ indicates binding activity greater than 0% and up to 50%)”.

The record behind these values is US11377441B2, “Covalent inhibitors of KRAS” (Araxes Pharma LLC, priority 2017, dated 2022).
